Measured values from US20020039746A1, “Methods for identifying peripheral benzodiazepine receptor binding agents” (priority 2000, published 2002).
Entries after “also recorded” stand apart in the source; their conditions may differ.

Tests used:
[1] = test system: inducible PBzR overexpressing SH-SY5Y-derived cells (IPBR-1); assay: apoptogen-driven caspase activation in tetracycline-inducible PBzR overexpressing SH-SY5Y-derived cells; type: cell-based
Protocol: (§1) Caspases are apoptosis-activated proteases, and caspase induction in cells is often indicative that the cells are undergoing programmed cell death (apoptosis). Apoptosis can be induced by a variety of compounds, including etoposide. S11 or vector control cells were plated at 30,000 cells/well in 96 well plates and grown for 20 hours. […] At this time, media was aspirated and caspase activity was measured by addition of 23 uM DEVD, a peptide that is fluorescent when cleaved by caspase 3, in PBS along with 0.03% digitonin. Fluorescence was measured in an Fmax™ 96-well plate reader (Molecular Devices, Sunnyvale, Calif.) using a kinetic assay. Total number of cells was determined using propidium iodide staining and used to normalize for total number of cells in each well.
The effect of tetracycline induced PBzR overexpression on apoptogen-driven (C2-ceramide, 80 μM, 8 hrs) caspase activation was examined in a selected, oligoclonal tetracycline-inducible PBzR overexpressing SH-SY5Y-derived cell line (FIG. 20). […] The caspase response also correlated with cell viability determinations (FIG. 22), consistent with presumed caspase roles in apoptotic cascades. […] Western blot analysis of IPBR-1 mitochondrial fractions isolated on metrizamide gradients and normalized on the basis of mitochondrial ETC Complex IV activity (as described above) confirmed a dramatic increase in PBzR expression. No discernible change in Bcl-2 expression levels, however, accompanied the induction of PBzR overexpression.

[2] = test system: S11 cells and vector control cells; assay: caspase activation (DEVD cleavage) in S11 and vector control cells; type: cell-based
Protocol: as §1
Etoposide and ceramide treatments were as described above.

[3] = PK-11195 induced cell death, propidium iodide staining, S11 cells; type: cell-based; conditions: human, read-out: percent of non-viable cells
Protocol: (§2) This provides apparent evidence for a functional link between PBR and Bcl-2. […] Cell viability was determined by propidium iodide staining cells and quantifying fluorescence with an Fmax™ plate reader (Molecular Devices, Sunnyvale, Calif.) according to the manufacturer's instructions.

[4] = PK-11195 induced cell death, propidium iodide staining, vector control cells; type: cell-based; conditions: human, vector control cells (low Bcl-2 expression), read-out: percent of non-viable cells
Protocol: as §2

[5] = biological target: T1, peripheral benzodiazepine receptor (PBR, PBzR) (Homo sapiens, UniProt P30536); assay: [3H]PK-11195 saturation binding to cell membranes
T1 construct: expressed in transfected cells; membranes
T1 sequence (P30536 whole entry): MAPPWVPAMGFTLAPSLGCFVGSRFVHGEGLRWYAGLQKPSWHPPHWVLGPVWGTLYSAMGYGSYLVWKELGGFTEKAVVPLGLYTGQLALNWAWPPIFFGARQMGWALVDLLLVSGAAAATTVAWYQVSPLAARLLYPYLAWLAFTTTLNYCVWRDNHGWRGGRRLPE

S11 mitochondria = assay: cytochrome C release upon calcium induced permeability transition; type: cell-based
PBzR = biological target: T2, PBzR (Homo sapiens, UniProt P30536); assay: displacement of [3H]PK-11195 binding to the S11 PBzR overexpressing clone; conditions: read-out: IC50, displacement of [3H]PK-11195; 6 μg S11 protein per data point
T2 construct: expressed in transfected cells; host or cells: S11, clonal SH-SY5Y-derived stably transfected PBzR-overexpressing line
T2 sequence (P30536 whole entry): as above
Protocol: Additional experiments were performed to further characterize the binding of ligand to PBzR.
The S11 cell line was used as a source of PBzR.

IPBR-1 cells = assay: PBzR ligand effect on doxorubicin induced caspase activation in IPBR-1 cells; type: cell-based; conditions: induced but not uninduced IPBR-1 cells, dose-dependent
Excerpt: Accordingly, the present invention provides the unexpected finding that peripheral benzodiazepine ligands may be distinguished on the basis of whether they preferentially alter apoptosis, and whether they preferentially alter a mitochondrial function. Data also indicate that benzodiazepine-related PBR ligands can act as effective anti-apoptotic agents, which may be of benefit in the treatment of certain neuropathologies and/or in chronic inflammatory conditions.

CCCCCCCCCCCCC/C=C/[C@@H](O)[C@H](CO)NC(C)=O [C2-ceramide]
caspase activation, induced versus uninduced cells ([1]; oligoclonal tetracycline-inducible line, 80 μM, 8 hrs): resistance to ceramide-stimulated caspase activation | caspase activation, S11 cells versus vector controls ([2]; concentrations of 80 and 100 μM): much greater activation of caspase in vector control cells than in the S11 cells

CCC(C)N(C)C(=O)c1cc2ccccc2c(-c2ccccc2Cl)n1 (stereo not drawn) [PK-11195, 1-(2-chlorophenyl)-N-methyl-N-(1-methylpropyl)-3-isoquinolinecarboxamide]
cytotoxicity at 24 h, 100 µM [3]: < 20% | cytotoxicity at 24 h, 20 µM ([4]; 20 μM): ~10% | cytotoxicity at 24 h, 100 µM ([4]; 100 μM): ~40% | Bmax (pmol/mg) ([5]; Jurkat Vector): Not detected | Bmax ([5]; S11): 43 pmol/mg | receptor concentration from saturation binding curves ([5]; S11 SY5Y clone / pooled over-expressors as worded): 25 pmol/mg | Bmax ([5]; SH-SY5Y Vector): 1.8 pmol/mg | binding maximum (BMAX) ([5]; native SY5Y cells): 1.8 pmol/mg | binding maximum (BMAX) ([5]; stable PBR expressing SY5Y cells): 25 ± 1.5 pmol/mg | release of cytochrome C from mitochondria (S11 mitochondria): caused a release of cytochrome C

CN1C(=O)CN=C(c2ccc(Cl)cc2)c2cc(Cl)ccc21 [RO 05-4864, 4′chlorodiazepam]
IC50 (PBzR): 36.8 nM | effect on doxorubicin induced activation of caspase (IPBR-1 cells): protective effect against the doxorubicin induced activation of caspase

Nc1c[n+](N2CCOCC2)no1.[Cl-] [SIN-1, 3-morpholinosydnonimine, HCl]
caspase activation, induced versus uninduced cells ([1]; IPBR-1, 100-400 μM): resistance to caspase activation

COc1cccc2c1C(=O)c1c(O)c3c(c(O)c1C2=O)C[C@@](O)(C(=O)CO)C[C@@H]3O[C@H]1C[C@H](N)[C@H](O)[C@H](C)O1 [doxorubicin]
caspase activation, induced versus uninduced cells ([1]; IPBR-1, 4 μM, 8 hrs): moderated the degree of caspase activation

COc1cc([C@@H]2c3cc4c(cc3[C@@H](O[C@@H]3O[C@@H]5CO[C@@H](C)O[C@H]5[C@H](O)[C@H]3O)[C@H]3COC(=O)[C@H]23)OCO4)cc(OC)c1O [etoposide]
caspase activation, S11 cells versus vector controls ([2]; etoposide 2-6 μM, six hours): caspase activation occurred at a higher rate in S11 cells than in vector controls; also recorded: greater activation of caspase in S11 cells than in vector controls

C/C=C(/C)C(=O)O[C@H]1C(C)=C2[C@H]([C@@H]1OC(=O)CCCCCCC)[C@@](C)(OC(C)=O)C[C@H](OC(=O)CCC)[C@@]1(O)[C@H]2OC(=O)[C@@]1(C)O [thapsigargin]
caspase activation, induced versus uninduced cells ([1]; tetracycline-induced IPBR-1): no reduction in caspase activation
